Values belong to the molecule of their own block, whether it stands above or below them.
Tests used:
[1] = Escitalopram serum concentration-to-dose; conditions: patients aged 80 years; combined linear and square age model
[2] = Sertraline serum concentration-to-dose; type: in vivo, patients; conditions: concomitant PPI vs control group without PPI
[3] = with omeprazole, cited from earlier work
[4] = Citalopram serum concentration-to-dose

SMILES: COc1ccc2[nH]c([S+]([O-])Cc3ncc(C)c(OC)c3C)nc2c1 (stereo not drawn) [Omeprazole, omeprazole]
increase in the concentration of R-citalopram ([3]; 9 healthy subjects): 25%
increase in the concentration of S-citalopram ([3]; 9 healthy subjects): ~2 fold
mean increase in the plasma concentration of escitalopram ([3]; healthy volunteers): ~100%
Expected Sertraline C/D Ratio Percent Change [2]: no significant differences

SMILES: COc1ccnc(C[S+]([O-])c2nc3ccc(OC(F)F)cc3[nH]2)c1OC (stereo not drawn) [Pantoprazole, pantoprazole]
Expected Citalopram C/D Ratio Percent Change ([4]; concomitant PPI vs control group without PPI): No significant effect
Expected Sertraline C/D Ratio Percent Change [2]: no significant differences

Continued, values first:

Escitalopram C/D ratio, age effect [1]: roughly doubled
SMILES: CN(C)CCC[C@@]1(c2ccc(F)cc2)OCc2cc(C#N)ccc21 [Escitalopram, escitalopram]

Expected Sertraline C/D Ratio Percent Change [2]: no significant differences
SMILES: Cc1c(OCC(F)(F)F)ccnc1C[S+]([O-])c1nc2ccccc2[nH]1 (stereo not drawn) [Lansoprazole, lansoprazole]

Citalopram C/D ratio, age effect ([4]; patients aged 80 years, combined linear and square age model): roughly doubled
SMILES: CN(C)CCCC1(c2ccc(F)cc2)OCc2cc(C#N)ccc21 (stereo not drawn) [Citalopram, citalopram]
